Measurements taken from PubChem BioAssay (NCI).
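The compound was tested at five concentrations on cells cultured in 96-well plates, with a 48-hour exposure period. GI50 = concentration required for 50% inhibition of growth. Definition used: TGI = concentration required for complete inhibition of growth.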

Assays:
Experiment in all cases: NCI-60 cell line screen, 48 h
[1] = system: BT-549 breast
[2] = system: SNB-75 CNS
[3] = system: 786-0 renal
[4] = system: A498 renal
[5] = system: A549 NSCLC
[6] = system: ACHN renal
[7] = system: CAKI-1 renal
[8] = system: COLO 205 colon
[9] = system: DU-145 prostate
[10] = system: EKVX NSCLC
[11] = system: HCC-2998 colon
[12] = system: HCT-116 colon
[13] = system: HCT-15 colon
[14] = system: HOP-62 NSCLC
[15] = system: HOP-92 NSCLC
[16] = system: HT29 colon
[17] = system: K-562 leukemia
[18] = system: KM12 colon
[19] = system: M14 melanoma
[20] = system: MCF7 breast
[21] = system: MDA-MB-231 breast
[22] = system: MDA-MB-435
[23] = system: MOLT-4 leukemia
[24] = system: NCI-H226 lung
[25] = system: NCI-H23 lung
[26] = system: NCI-H460 lung
[27] = system: NCI-H522 lung
[28] = system: NCI/ADR-RES ovarian
[29] = system: OVCAR-4 ovarian
[30] = system: OVCAR-5 ovarian
[31] = system: PC-3 prostate
[32] = system: RPMI-8226 leukemia
[33] = system: SF-268 CNS
[34] = system: SF-295 CNS
[35] = system: SK-MEL-2 melanoma
[36] = system: SK-MEL-28 melanoma
[37] = system: SK-MEL-5 melanoma
[38] = system: SK-OV-3 ovarian
[39] = system: SN12C renal
[40] = system: SNB-19 CNS
[41] = system: SW-620 colon
[42] = system: TK-10 renal
[43] = system: U251 CNS
[44] = system: UACC-257 melanoma
[45] = system: UACC-62 melanoma
[46] = system: UO-31 renal
[47] = system: HL-60(TB) leukemia
[48] = system: HS 578T breast
[49] = system: IGROV1 ovarian
[50] = system: MALME-3M melanoma
[51] = system: OVCAR-3 ovarian
[52] = system: OVCAR-8 ovarian
[53] = system: RXF 393 renal
[54] = system: SF-539 CNS
[55] = system: SR leukemia
[56] = system: T-47D breast

NC(=O)c1ncn(CC2(COC(=O)c3ccccc3)CCC2)n1
GI50 [1]: 82.1 µM | GI50 [2]: 9.86 µM | TGI [2]: 92.5 µM

S=c1oc(CCCCCCCCc2nn(CNc3ccccc3)c(=S)o2)nn1CNc1ccccc1
TGI [3]: > 100 µM | TGI [4]: > 100 µM | TGI [5]: > 100 µM | TGI [6]: > 100 µM | TGI [1]: > 100 µM | TGI [7]: > 100 µM | TGI [8]: > 100 µM | TGI [9]: > 100 µM | TGI [10]: > 100 µM | TGI [11]: > 100 µM | TGI [12]: > 100 µM | TGI [13]: > 100 µM | TGI [14]: > 100 µM | TGI [15]: > 100 µM | TGI [16]: > 100 µM | TGI [17]: > 100 µM | TGI [18]: > 100 µM | TGI [19]: > 100 µM | TGI [20]: > 100 µM | TGI [21]: > 100 µM | TGI [22]: > 100 µM | TGI [23]: > 100 µM | TGI [24]: > 100 µM | TGI [25]: > 100 µM | TGI [26]: > 100 µM | TGI [27]: > 100 µM | TGI [28]: > 100 µM | TGI [29]: > 100 µM | TGI [30]: > 100 µM | TGI [31]: > 100 µM | TGI [32]: > 100 µM | TGI [33]: > 100 µM | TGI [34]: > 100 µM | TGI [35]: > 100 µM | TGI [36]: > 100 µM | TGI [37]: > 100 µM | TGI [38]: > 100 µM | TGI [39]: > 100 µM | TGI [40]: > 100 µM | TGI [2]: > 100 µM | TGI [41]: > 100 µM | TGI [42]: > 100 µM | TGI [43]: > 100 µM | TGI [44]: > 100 µM | TGI [45]: > 100 µM | TGI [46]: > 100 µM

Clc1ccccc1CN1COc2c(cc(Cl)c3cccnc23)C1
TGI [3]: 18.9 µM | TGI [5]: 13.6 µM | TGI [6]: 13.4 µM | TGI [7]: 24 µM | TGI [8]: 43.2 µM | TGI [9]: 21 µM | TGI [12]: 15.4 µM | TGI [13]: 10.9 µM | TGI [47]: 8.9 µM | TGI [14]: 18.7 µM | TGI [15]: 23 µM | TGI [48]: 23.4 µM | TGI [16]: 36.6 µM | TGI [49]: 23.7 µM | TGI [17]: 11.9 µM | TGI [18]: 14.6 µM | TGI [19]: 21.7 µM | TGI [50]: 11.1 µM | TGI [20]: 86.5 µM | TGI [21]: 9.33 µM | TGI [22]: 20.9 µM | TGI [23]: 1.12 µM | TGI [24]: 4.09 µM | TGI [25]: 13.2 µM | TGI [26]: 27.4 µM | TGI [27]: 15.7 µM | TGI [28]: 1.74 µM | TGI [51]: 26.4 µM | TGI [29]: 14.2 µM | TGI [30]: 15.1 µM | TGI [52]: 13.9 µM | TGI [31]: 18.7 µM | TGI [53]: 39.6 µM | TGI [33]: 46.5 µM | TGI [34]: 16.6 µM | TGI [54]: 10.9 µM | TGI [35]: 26.1 µM | TGI [36]: 25.9 µM | TGI [37]: 5.78 µM | TGI [38]: 21.2 µM | TGI [39]: 0.494 µM | TGI [40]: 17.2 µM | TGI [2]: 18.8 µM | TGI [55]: 4 µM | TGI [41]: 21 µM | TGI [56]: > 100 µM | TGI [42]: 26.5 µM | TGI [43]: 14.1 µM | TGI [44]: 12.3 µM | TGI [45]: 3.8 µM | TGI [46]: 21.7 µM
